assay: Human HepG2 cell viability assay in 384 well format; assay type: toxicity, cell-based; design: dose 125 nL, time 70.5 hour; concentration not given beside the values; conditions: HepG2 cells, read-out: Inhibition

| SMILES | cytotoxicity at 70.5 h |
| --- | --- |
| CCN(CC1CCOC1)C(=O)c1cc(F)ccc1N1CCN(C)CC1 (centres undefined) | 46% |
| CCOc1ccccc1CNCC1CCN(CC(C)O)CC1 (centres undefined) | -1.15% |
| Fc1ccc(OC2CCN(CCn3cncn3)CC2)cc1 | -9.54% |
| CCCc1nc(CN2CCCC(Cn3cncn3)C2)no1 (centres undefined) | 3.03% |
| Cc1ccc(C(=O)N2C[C@H]3CCCC(OCc4cccnc4)[C@H]3C2)cn1 (some centres undefined) | -1.36% |
| CSCCC(=O)N1CCC(CCC(=O)NCC2CCCO2)CC1 (centres undefined) | -13.2% |
| COc1c(CNC2CCCOc3ccc(F)cc32)c(C(C)C)nn1C (centres undefined) | -4.87% |
| Cc1cnc(CC2COCCN(Cc3nccn3C)C2)cn1 (centres undefined) | -1.89% |
| CC(C)OCc1nn(C)c2c1CCN(CC1CC1)C2 | -2.45% |
| Cc1cccc(CN2CC3C[C@]3(NC(=O)c3cccc(F)c3)C2)n1 (some centres undefined) | -12.2% |
| Cc1cc(=O)n2nc(CNc3cc(Cl)ccc3C)nc2[nH]1 | -9.92% |
| CSc1ccc(CN(C)C(=O)c2cc3c([nH]c2=O)CCCC3=O)cc1 | -2.82% |
| O=S(=O)(c1ccccc1)N1CCOC(Cn2ccnc2)C1 (centres undefined) | -6.05% |
| CCC[C@@H]1CN(S(=O)(=O)c2ccc(OC)c(OC)c2)C[C@H]1NC(C)=O | 6.19% |
| Cc1noc(-c2cnc(NC3CC3)nc2-c2ccco2)c1C | -14.9% |
| COCCCn1ccc(NC(=O)NCCc2cccnc2)n1 | -6.28% |
| COc1ccc2c(c1)CCCN2Cc1nc(C)c(C)o1 | -4.99% |
| CS(=O)(=O)C1CCN(S(=O)(=O)c2ccc(F)c(F)c2)CC1 | 1.4% |
| O=C1CNc2ncnc(Nc3cccc(Cn4cccn4)c3)c2N1 | -6.61% |
| CN(C(=O)NCCCNc1ccccn1)C1CCS(=O)(=O)C1 (centres undefined) | -10.6% |
| Cc1ccc(CN2CCc3nc(C(C)C)nc(O)c3CC2)s1 | -4.74% |

| SMILES | cytotoxicity at 70.5 h |
| --- | --- |
| CC(=O)N(Cc1ccsc1)c1ccccc1 | -7.44% |
| COc1cc(N2CCC(c3nccn3Cc3ccccc3)CC2)ncn1 | -1.15% |
| COCCN1CCCC(Cc2ccc(N3CCOCC3)nn2)C1 (centres undefined) | -7.53% |
| Cc1nc(CN2CCOC(Cn3cccn3)C2)nc2ccccc12 (centres undefined) | -12.1% |
| O=C(c1cccc(CO)n1)N1CCCC1c1nc2cc(F)ccc2[nH]1 (centres undefined) | 16.2% |
| CC(C)C(=O)Nc1ccc(C(O)Cn2nc(-c3cccs3)oc2=O)cc1 (centres undefined) | 28.2% |
| O=C(CN1CCCCC1Cn1cccn1)NC1CCN(C2CC2)CC1 (centres undefined) | -7.07% |
| CC(C)c1nnc(NC(=O)Cc2ccc(F)cc2)[nH]1 | -13.1% |
| CN1CC=C(CCN(C)C(=O)CCc2ccccc2)CC1 | -6.34% |
| COc1ccc(-c2noc(C(CC(C)C)N3CCCCC3=O)n2)cn1 (centres undefined) | -0.898% |
| CC(=O)NCCCNCc1cc(F)ccc1Br | 15% |
| CN(C)CCCn1ccnc1C1CCCN(c2ncc(Cl)cc2F)C1 (centres undefined) | -2.12% |
| Cc1cccc(NS(=O)(=O)c2cc3c(c(C(=O)O)c2)OCCO3)c1 | -7.67% |
| CN(C)CCN1CC2(CCCN(c3ccc(Cl)cn3)C2)CCC1=O (centres undefined) | 3.01% |
| COc1cc(N2CCC[C@]3(C(=O)O)CN(C(C)C)C[C@@H]3C2)ncn1 | -3.84% |
| Nc1nc(CN2CCCC(Cn3cncn3)C2)nc2ccccc12 (centres undefined) | 1.03% |
| Fc1ccccc1Cc1noc(CN2CCC(C3CCCCC3)C2)n1 (centres undefined) | 34.7% |
| CCn1ccnc1CN(C)c1cc(N(C)C)ncn1 | 0.0154% |
| COCCN1CCC2(CCC1=O)CN(C1CCOCC1)CCN2C (centres undefined) | -10.7% |
| Cc1ncsc1C(=O)N1CCCC(n2cncn2)C1 (centres undefined) | -13.3% |
| CCCn1ccnc1CN1CCc2[nH]cnc2C1Cc1ccccc1 (centres undefined) | -4.4% |

| SMILES | cytotoxicity at 70.5 h |
| --- | --- |
| CCc1c(C)sc2nc3n(CCN(C)C)nc(SC)n3c(=O)c12 | 20.8% |
| CN1CCCCCC1C(=O)NCCCn1ncc2ccccc21 (centres undefined) | -11.3% |
| COc1ccc(CC2(CO)CCN(c3cc(C(N)=O)ccn3)CC2)cc1 | -2.15% |
| CCC(=O)Nc1nnc(CCOc2ccccc2OC)s1 | -11.7% |
| CCOCCN1CCn2c(C)nnc2C1 | 16.1% |
| COCC(O)CN(C)C(=O)NCc1ccc(S(C)(=O)=O)cc1 (centres undefined) | -106% |
| O[C@@H]1CN(c2noc(C3CC3)n2)CC[C@H]1c1ccc2ccccc2c1 | 17.6% |
| CCc1nnc(CN(CC)C(=O)CCc2scnc2C)o1 | -2.72% |
| CCOc1ncccc1NC(=O)c1cccs1 | -10.3% |
| CCn1cc(Cn2cc(Cl)c(N)n2)c(C)n1 | -2.35% |
| CS(=O)(=O)NCC1CCCN(Cc2ccc(F)c3cccnc23)C1 (centres undefined) | -12.2% |
| CSCC[C@H](N)c1nnc(SCC(=O)Nc2ccc(Br)cc2)o1 | -18.7% |
| COC(=O)Cn1c(=O)nc2n1C(=O)N(c1ccc(F)cc1)C2 | -12.5% |
| c1ccc(CCN2CCCC2c2ccnc(Nc3cnccn3)n2)cc1 (centres undefined) | -3.41% |
| CC[C@H](C)[C@H](N)C(=O)N1CC(=O)c2sc(NCc3ccccc3)nc2C1 | 7.34% |
| CS(=O)(=O)CCSCc1cc(F)cc2cccnc12 | -16.7% |
| CC(CNS(N)(=O)=O)Oc1cccc(Cl)c1 (centres undefined) | -0.0153% |
| O=c1c2cc3c(cc2nnn1Cc1cccc(F)c1)OCCO3 | -9.5% |
| COCc1nccc(C2CCCN(Cc3ccccc3C#N)C2)n1 (centres undefined) | -6.99% |
| COCCNC(=O)CSc1nnc(OC(C)C)s1 | -10.2% |
| O=C(NCCc1cccc(F)c1)c1nc2c(s1)CCCN2C(=O)C1CC1 | -5.89% |

| SMILES | cytotoxicity at 70.5 h |
| --- | --- |
| CN(CCC#N)C(=O)CN(C1CC1)C1CCc2ccccc21 (centres undefined) | 0.586% |
| COCCOc1cccc(C(=O)N2CCCC(n3ccnc3)C2)c1 (centres undefined) | -4.62% |
| c1ncn(CC2CN(CC3CCCC3)CCO2)n1 (centres undefined) | 0.357% |
| COc1ccc(NC(=O)CNc2cccc3c2CCCC3)c(OC)c1 | 29.7% |
| CCCc1ccc2oc(C(=O)N3CCN(CCOC)CC3)c(C)c2c1 | -2.68% |
| c1ccc(Cc2nnc(CN3CCCC(Cn4cncn4)C3)o2)cc1 (centres undefined) | -13.3% |
| Cc1cccc(O[C@H]2COCCN(C3CCOCC3)C2)n1 | -9.61% |
| NC(=O)NC(=O)CNC1(c2ccc(Cl)cc2)CCCC1 | -17.2% |
| O=C(Cc1ccccc1Cl)Nc1cnn(C2CCOC2)c1 (centres undefined) | -14% |
| O=C(CCN1CCCN(c2nccs2)CC1)Nc1ccccc1 | 28.8% |
| Cc1nn(C)c(C)c1CC(=O)N1CCCC(CNS(C)(=O)=O)C1 (centres undefined) | -0.898% |
| Cc1nn2c(-c3cnn(C)c3)nnc2s1 | -7.18% |
| CN(Cc1nnc(C2CC2)n1C)C1CCN(Cc2ccon2)C1 (centres undefined) | -12.4% |
| COc1ccc(Cl)cc1NC(=O)CCNc1ccc(C#N)cn1 | -6.33% |
| COc1cc2c(cc1CNCc1cccnc1OC)OC(C)C2 (centres undefined) | -8.84% |
| O=C(c1cc(C2CC2)[nH]n1)N1CCCC(n2cncn2)C1 (centres undefined) | -0.297% |
| Cc1ccccc1N1CCCN(C(=O)CCc2cccnc2)CC1 | 0.239% |
| CN(CCC(C)(C)O)C(=O)C1CCC(=O)N(Cc2ccc(Cl)cc2)C1 (centres undefined) | -5.36% |
| C1CCN(CCO[C@@H]2CC[C@H]3[C@H]2OCCN3CC2CCOCC2)C1 | -120% |
| Clc1ccc2oc(C3CCN(Cc4nc(C5CC5)no4)CC3)nc2c1 | -16.3% |
| Cn1ncc2c(N3CCCC4(CCNC4)C3)nc(C(C)(C)C)nc21 (centres undefined) | -11.5% |
